From US20250042896A1, “POLYCYCLIC COMPOUND AS CBL-B INHIBITOR” (HAINAN SIMCERE ZAIMING PHARMACEUTICAL CO., LTD., priority 2021, published 2025)

What was measured:
[1] = system: Jurkat T cells; assay: Jurkat T activation assay (IL-2 release, ELISA); format: cell-based; conditions: IL-2 release of Jurkat T cells, Anti-Human CD3/CD28 stimulation, 48 hours, IL-2 ELISA
Procedure: Experiment purpose: Testing of effect of compounds on IL-2 release and activation of Jurkat T cells
Experimental method: 96-well cell plates (Corning) were coated with 2 μg/mL Anti-Human CD3 Clone OKT3 (BD) at 37° C. for 4 hours. 3-fold serial dilutions of compounds (final concentration 10 μM-4.6 nM, starting concentration 10 μM, 3-fold dilution, 8 points, 8th point being 4.6 nM) and 220 μL of 1.11×10^6/mL Jurkat T cells (ATCC) were incubated for 1 hour, 5 μL of 45 μg/mL Anti-Human CD28 Clone CD28.2 (BD) was added, mixed evenly, 100 μL was transferred to the aforementioned CD3-coated cell plate, cultured in a cell incubator at 37° C. for 48 hours, and the supernatant was collected and the IL-2 release was detected using an IL-2 ELISA kit (BD). EC50 was analyzed using Prism.

[2] = biological target: Cbl-b protein and UbcH5B-Ub (Homo sapiens (Human), UniProt Q13191); assay: Cbl-b activity assay (HTRF, interaction between Cbl-b protein and UbcH5B-Ub); format: biochemical; conditions: inhibition of interaction between Biotin-Cbl-b protein and Eu-Ubquitin-UbcH5B, HTRF signal 665 nm/615 nm
Sequence of Cbl-b protein and UbcH5B-Ub (Q13191 whole entry, species assumed): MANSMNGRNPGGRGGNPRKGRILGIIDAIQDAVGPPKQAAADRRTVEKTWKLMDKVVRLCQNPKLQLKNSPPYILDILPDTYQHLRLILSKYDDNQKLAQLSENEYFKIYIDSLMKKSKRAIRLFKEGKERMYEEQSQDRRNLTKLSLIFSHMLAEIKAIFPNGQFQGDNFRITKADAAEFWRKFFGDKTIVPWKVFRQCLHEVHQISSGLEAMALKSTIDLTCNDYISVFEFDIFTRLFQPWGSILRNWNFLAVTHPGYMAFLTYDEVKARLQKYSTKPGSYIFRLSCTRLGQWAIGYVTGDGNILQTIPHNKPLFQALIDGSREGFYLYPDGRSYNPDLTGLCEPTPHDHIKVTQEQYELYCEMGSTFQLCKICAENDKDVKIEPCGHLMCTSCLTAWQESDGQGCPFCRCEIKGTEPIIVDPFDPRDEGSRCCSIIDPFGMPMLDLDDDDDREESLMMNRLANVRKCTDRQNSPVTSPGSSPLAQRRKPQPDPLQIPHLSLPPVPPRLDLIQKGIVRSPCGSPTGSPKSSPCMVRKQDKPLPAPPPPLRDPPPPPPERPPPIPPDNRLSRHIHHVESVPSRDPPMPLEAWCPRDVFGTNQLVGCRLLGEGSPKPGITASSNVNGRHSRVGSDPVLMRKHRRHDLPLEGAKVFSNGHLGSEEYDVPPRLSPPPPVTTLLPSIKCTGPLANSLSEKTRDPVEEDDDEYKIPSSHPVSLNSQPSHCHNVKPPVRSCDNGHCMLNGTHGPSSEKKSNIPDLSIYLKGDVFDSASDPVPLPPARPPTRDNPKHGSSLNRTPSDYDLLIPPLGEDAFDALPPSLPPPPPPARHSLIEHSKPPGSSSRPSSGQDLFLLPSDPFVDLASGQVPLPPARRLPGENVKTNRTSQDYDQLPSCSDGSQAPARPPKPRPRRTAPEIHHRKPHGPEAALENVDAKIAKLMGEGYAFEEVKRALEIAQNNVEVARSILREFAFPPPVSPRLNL
Procedure: Experiment purpose: Testing of inhibitory activity of compounds on the interaction between Cbl-b protein and UbcH5B-Ub
Experimental method: Eu-Ubquitin-UbcH5B was prepared by incubating Eu-Ubquitin (Cisbio) with UbcH5B (ENZO), E1 (ENZO) at 37° C. for 4 hours. Eu-Ubquitin-UbcH5B was aliquoted and stored at −80° C. Cbl-b activity assay was performed in 384-well plates (Perkin Elmer). 100 nL of 3-fold serial dilutions of compounds (final concentration 10 μM-0.5 nM, starting concentration 10 μM, 3-fold dilution, 10 points, 10th point being 0.5 nM) and 5 μL of 50 nM Biotin-Cbl-b protein (Sigma) were incubated for 1 hour at room temperature, and the reaction buffer was 50 mM HEPES pH 7.0 (Gibco), 100 mM NaCl (Sigma), 0.01% Triton X-100 (Sigma), 0.01% BSA (Sigma) and 1 mM DTT (Invitrogen). 5 μL of Src mixed solution (40 nM Src (R&D), 2 mM ATP (Sigma), 10 mM MgCl2 (Sigma)) was added to the reaction plate and incubated at room temperature for 3 hours. 10 μL of detection solution (12.5 nM Strepdividin-XL665 (Cisbio), 500 nM Eu-Ubquitin-UbcH5B, […] (Invitrogen), 0.004% BSA (Sigma)) was added to the reaction plate, incubated overnight at room temperature, and the HTRF signal (665 nm/615 nm) was read on Envision (Perkin Elmer). IC50 was calculated using IDBS XLfit.

Row | Compound | EC50 [1] | IC50 [2]
1 | (1S,3R)-3-(4-methyl-4H-1,2,4-triazol-3-yl)-3-(3-(8-methyl-6-(((S)-3-methylpiperidin-1-yl)methyl)-4-oxo-4H-chromen-3-yl)phenyl)cyclobutylacetonitrile [Compound 68] | 456 nM | 17.8 nM
2 | CC(NC1(C)CCC1)c1cc(C(F)(F)F)c2ncc(-c3cccc([C@]4(c5nncn5C)C[C@@H](C)C4)c3)c(=O)n2c1 (stereo partly drawn) [Compound 126, 3-(3-(cis-3-methyl-1-(4-methyl-4H-1,2,4-triazol-3-yl)cyclobutyl)phenyl)-7-(1-((1-methylcyclobutyl)amino)ethyl)-9-(trifluoromethyl)-4H-pyrido[1,2-a]pyrimidin-4-one] | 80.5 nM | 11.1 nM
3 | Cc1cc(CN2CCC[C@H](C)C2)cc2c(=O)c(-c3cccc(C(F)(c4nncn4C)C4CC4)c3)coc12 (stereo partly drawn) [Compound 120] | 688 nM | 17.5 nM
4 | C[C@H]1CCCN(Cc2cc(C(F)(F)F)c3ncc(-c4cccc([C@]5(c6nncn6C)C[C@@H](C)C5)c4)c(=O)n3c2)C1 [Compound 2-P1] | 426 nM | 27.1 nM
5 | Cc1cc(C(C)NC2(C)CCC2)cc2c(=O)c(-c3cccc([C@]4(c5nncn5C)C[C@@H](C)C4)c3)coc12 (stereo partly drawn) [Compound 123, 8-methyl-3-(3-(cis-3-methyl-1-(4-methyl-4H-1,2,4-triazol-3-yl)cyclobutyl)phenyl)-6-(1-((1-methylcyclobutyl)amino)ethyl)-4H-chromen-4-one] | 53.6 nM | 5.4 nM
6 | Cc1c(F)c(CN2CCC[C@H](C)C2)cc2c(=O)c(-c3cccc(C4(c5nncn5C)CC(C)C4)c3)coc12 (stereo in doubt) [Compound 121, 7-fluoro-8-methyl-3-(3-(cis-3-methyl-1-(4-methyl-4H-1,2,4-triazol-3-yl)cyclobutyl)phenyl)-6-(((s)-3-methylpiperidin-1-yl)methyl)-4H-chromen-4-one] | 250 nM | 10.1 nM
7 | Cc1cc(CN2CCC[C@H](C)C2)cc2c(=O)c(-c3cncc(C4(c5nncn5C)CC(C)C4)c3)coc12 (stereo partly drawn) [Compound 65, (S)-8-methyl-3-(5-(3-methyl-1-(4-methyl-4H-1,2,4-triazol-3-yl)cyclobutyl)pyridin-3-yl)-6-((3-methylpiperidin-1-yl)methyl)-4H-chromen-4-one] | 265 nM | 17 nM
8 | Cc1cc(CN2CCC[C@H](C)C2)cc2c(=O)c(-c3cccc(C(F)(c4nncn4C)C(F)(F)F)c3)coc12 (stereo partly drawn) [Compound 128, 8-methyl-6-(((S)-3-methylpiperidin-1-yl)methyl)-3-(3-(1,2,2,2-tetrafluoro-1-(4-methyl-4H-1,2,4-triazol-3-yl)ethyl)phenyl)-4H-chromen-4-one] | 279 nM | 28.6 nM
9 | CC1CC(c2cccc(-c3cnc4c(C(F)(F)F)cc(CN5CC6CC(C)(C6)C5)cn4c3=O)c2)(c2nncn2C)C1 (stereo not drawn) [Compound 62] | 525 nM | 23.6 nM
